Experimental data reported in ChEMBL document CHEMBL5465560, “Selectivity Literature for EUbOPEN Chemogenomic Library” (2024).

Assays:
[1] = molecular target: T1, Serine/threonine-protein kinase LATS1 (Homo sapiens) (UniProt O95835); details: at 10 µM
T1 sequence (whole entry): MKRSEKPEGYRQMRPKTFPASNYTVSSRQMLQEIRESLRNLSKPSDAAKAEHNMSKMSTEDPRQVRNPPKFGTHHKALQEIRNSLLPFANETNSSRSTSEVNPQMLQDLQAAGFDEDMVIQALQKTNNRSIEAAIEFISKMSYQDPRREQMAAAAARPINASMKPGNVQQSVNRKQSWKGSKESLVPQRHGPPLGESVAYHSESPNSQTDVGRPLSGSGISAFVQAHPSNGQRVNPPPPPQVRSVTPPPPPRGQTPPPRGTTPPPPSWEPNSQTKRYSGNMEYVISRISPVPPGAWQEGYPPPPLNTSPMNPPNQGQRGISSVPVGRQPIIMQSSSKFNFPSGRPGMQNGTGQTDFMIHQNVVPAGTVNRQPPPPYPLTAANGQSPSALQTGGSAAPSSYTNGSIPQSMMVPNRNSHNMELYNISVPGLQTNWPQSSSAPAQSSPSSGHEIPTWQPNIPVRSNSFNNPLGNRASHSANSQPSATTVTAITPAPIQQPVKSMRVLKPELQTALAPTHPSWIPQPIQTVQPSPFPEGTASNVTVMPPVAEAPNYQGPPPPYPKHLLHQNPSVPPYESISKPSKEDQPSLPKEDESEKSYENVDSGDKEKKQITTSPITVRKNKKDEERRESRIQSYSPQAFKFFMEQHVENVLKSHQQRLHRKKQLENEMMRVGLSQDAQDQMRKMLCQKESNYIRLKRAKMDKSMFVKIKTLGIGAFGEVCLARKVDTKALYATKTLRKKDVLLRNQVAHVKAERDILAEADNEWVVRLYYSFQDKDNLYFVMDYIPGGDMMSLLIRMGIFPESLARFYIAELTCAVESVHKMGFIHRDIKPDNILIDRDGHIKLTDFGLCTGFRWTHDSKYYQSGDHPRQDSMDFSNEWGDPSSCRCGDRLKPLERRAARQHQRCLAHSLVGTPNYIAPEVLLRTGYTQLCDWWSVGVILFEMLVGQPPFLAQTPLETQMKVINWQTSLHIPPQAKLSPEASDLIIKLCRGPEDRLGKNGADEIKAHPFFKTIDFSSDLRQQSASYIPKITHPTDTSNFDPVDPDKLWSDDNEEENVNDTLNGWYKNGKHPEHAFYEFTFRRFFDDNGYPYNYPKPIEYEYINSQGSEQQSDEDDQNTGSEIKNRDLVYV

[2] = molecular target: Tyrosine-protein kinase Lck (Homo sapiens, UniProt P06239); test: Selectivity interaction (Kinase panel (Z-LYTE Assay)) EUB0001632a LCK; details: at 10 µM
Chain of Tyrosine-protein kinase Lck (P06239 2-509 limits assumed): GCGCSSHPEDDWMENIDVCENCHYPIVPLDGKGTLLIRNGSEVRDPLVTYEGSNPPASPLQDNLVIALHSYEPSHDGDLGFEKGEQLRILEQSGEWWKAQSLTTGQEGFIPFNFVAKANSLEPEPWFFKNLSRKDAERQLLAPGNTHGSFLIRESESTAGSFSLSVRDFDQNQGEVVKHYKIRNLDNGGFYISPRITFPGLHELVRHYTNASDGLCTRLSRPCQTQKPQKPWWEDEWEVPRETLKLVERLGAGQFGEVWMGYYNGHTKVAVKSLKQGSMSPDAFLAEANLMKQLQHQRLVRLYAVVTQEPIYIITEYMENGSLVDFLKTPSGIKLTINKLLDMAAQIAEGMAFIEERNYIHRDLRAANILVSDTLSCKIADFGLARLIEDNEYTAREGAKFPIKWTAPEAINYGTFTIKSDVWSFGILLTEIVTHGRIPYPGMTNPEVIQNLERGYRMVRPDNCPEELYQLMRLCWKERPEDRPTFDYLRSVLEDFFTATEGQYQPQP

[3] = molecular target: Proto-oncogene tyrosine-protein kinase ROS (Homo sapiens) (UniProt P08922); test: Selectivity interaction (KinomeScan (DiscoverX)) EUB0000666a ROS1; details: at 10 µM
[4] = molecular target: Tyrosine-protein kinase Fer (Homo sapiens) (UniProt P16591); details: at 10 µM
Chain of Tyrosine-protein kinase Fer (Homo sapiens) (P16591 whole entry, looked up): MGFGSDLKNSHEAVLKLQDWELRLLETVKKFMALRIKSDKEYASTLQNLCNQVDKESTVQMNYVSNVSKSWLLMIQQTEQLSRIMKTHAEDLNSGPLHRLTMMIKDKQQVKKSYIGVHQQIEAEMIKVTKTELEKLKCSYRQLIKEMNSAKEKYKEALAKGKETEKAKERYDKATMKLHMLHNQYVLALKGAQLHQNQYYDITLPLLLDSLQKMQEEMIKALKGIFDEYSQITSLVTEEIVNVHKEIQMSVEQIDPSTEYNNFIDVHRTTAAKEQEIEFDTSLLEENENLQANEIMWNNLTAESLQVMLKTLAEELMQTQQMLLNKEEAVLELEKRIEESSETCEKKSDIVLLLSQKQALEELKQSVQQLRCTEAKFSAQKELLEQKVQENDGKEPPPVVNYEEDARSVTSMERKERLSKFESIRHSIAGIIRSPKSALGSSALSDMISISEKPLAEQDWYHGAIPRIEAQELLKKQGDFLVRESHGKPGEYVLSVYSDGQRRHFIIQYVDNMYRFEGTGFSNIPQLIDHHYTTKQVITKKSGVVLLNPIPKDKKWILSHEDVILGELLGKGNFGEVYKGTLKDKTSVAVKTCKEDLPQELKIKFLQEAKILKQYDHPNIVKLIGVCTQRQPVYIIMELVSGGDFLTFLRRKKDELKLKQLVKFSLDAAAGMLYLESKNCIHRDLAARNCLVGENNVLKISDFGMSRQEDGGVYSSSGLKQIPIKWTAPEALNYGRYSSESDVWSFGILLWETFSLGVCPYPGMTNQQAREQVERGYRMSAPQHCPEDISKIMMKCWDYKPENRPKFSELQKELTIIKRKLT

[5] = molecular target: Ephrin type-A receptor 2 (Homo sapiens) (UniProt P29317); test: Selectivity interaction (Kinase panel (DSF assay)) EUB0001558a EPHA2
Chain of Ephrin type-A receptor 2 (Homo sapiens) (P29317 whole entry): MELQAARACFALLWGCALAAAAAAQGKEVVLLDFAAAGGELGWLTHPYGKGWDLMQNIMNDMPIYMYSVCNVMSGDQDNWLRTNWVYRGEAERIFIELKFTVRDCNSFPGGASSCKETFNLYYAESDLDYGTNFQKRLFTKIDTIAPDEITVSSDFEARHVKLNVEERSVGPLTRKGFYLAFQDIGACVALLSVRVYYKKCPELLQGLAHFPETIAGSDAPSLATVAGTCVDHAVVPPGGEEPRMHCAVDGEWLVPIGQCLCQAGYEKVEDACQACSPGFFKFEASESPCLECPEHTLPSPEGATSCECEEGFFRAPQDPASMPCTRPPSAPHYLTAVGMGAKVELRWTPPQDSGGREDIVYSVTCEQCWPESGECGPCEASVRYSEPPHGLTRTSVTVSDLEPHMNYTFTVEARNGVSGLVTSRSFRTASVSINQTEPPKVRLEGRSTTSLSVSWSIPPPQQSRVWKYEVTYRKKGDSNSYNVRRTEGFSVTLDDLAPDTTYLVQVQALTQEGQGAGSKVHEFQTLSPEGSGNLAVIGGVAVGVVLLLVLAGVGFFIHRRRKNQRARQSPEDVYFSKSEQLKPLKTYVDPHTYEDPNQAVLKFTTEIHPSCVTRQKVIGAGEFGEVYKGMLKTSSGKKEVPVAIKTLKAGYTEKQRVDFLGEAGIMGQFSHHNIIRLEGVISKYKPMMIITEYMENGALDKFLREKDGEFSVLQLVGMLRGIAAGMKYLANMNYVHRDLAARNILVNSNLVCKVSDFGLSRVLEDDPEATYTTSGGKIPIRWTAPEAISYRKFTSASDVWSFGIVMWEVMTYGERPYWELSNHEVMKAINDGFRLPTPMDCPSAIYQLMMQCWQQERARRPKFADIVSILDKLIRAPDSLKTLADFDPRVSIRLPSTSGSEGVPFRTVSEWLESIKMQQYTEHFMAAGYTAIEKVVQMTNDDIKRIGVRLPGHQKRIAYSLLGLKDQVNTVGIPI

[6] = molecular target: Phosphatidylinositol 3-kinase catalytic subunit type 3 (Homo sapiens, UniProt Q8NEB9); test: Selectivity interaction (ActivX KiNativ screen (kinase selectivity in THP-1 cell lysates)) EUB0000639a PIK3C3; assay type: subcellular; details: lysate
Chain of Phosphatidylinositol 3-kinase catalytic subunit type 3 (Q8NEB9 whole entry): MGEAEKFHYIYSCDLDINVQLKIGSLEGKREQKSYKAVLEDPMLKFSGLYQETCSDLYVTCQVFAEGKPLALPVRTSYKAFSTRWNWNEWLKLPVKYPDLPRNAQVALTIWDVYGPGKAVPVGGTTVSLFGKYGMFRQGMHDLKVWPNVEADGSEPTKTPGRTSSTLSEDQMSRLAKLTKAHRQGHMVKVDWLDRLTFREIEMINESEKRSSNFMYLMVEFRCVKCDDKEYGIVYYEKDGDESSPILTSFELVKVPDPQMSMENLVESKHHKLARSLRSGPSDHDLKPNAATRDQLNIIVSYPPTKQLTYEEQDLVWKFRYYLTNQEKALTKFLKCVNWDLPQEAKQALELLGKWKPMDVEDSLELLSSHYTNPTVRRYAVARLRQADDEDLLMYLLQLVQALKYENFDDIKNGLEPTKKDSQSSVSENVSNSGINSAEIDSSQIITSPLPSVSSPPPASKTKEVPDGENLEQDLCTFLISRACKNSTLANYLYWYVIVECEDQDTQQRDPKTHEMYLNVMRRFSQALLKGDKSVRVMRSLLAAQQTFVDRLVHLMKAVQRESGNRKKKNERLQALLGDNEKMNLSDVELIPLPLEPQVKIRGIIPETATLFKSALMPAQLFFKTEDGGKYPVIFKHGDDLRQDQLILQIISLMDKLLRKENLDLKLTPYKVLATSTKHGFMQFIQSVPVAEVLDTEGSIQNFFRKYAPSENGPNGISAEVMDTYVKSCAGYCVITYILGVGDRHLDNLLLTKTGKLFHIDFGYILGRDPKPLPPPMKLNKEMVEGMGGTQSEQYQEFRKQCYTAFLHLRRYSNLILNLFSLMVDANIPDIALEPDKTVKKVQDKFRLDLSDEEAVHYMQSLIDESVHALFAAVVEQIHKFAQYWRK

[7] = molecular target: Interferon-induced, double-stranded RNA-activated protein kinase (Homo sapiens) (UniProt P19525); test: Selectivity interaction (ActivX KiNativ screen (kinase selectivity in THP-1 cell lysates)) EUB0000639a EIF2AK2; assay type: subcellular; details: lysate, at 1 µM
Chain of Interferon-induced, double-stranded RNA-activated protein kinase (Homo sapiens) (P19525 whole entry): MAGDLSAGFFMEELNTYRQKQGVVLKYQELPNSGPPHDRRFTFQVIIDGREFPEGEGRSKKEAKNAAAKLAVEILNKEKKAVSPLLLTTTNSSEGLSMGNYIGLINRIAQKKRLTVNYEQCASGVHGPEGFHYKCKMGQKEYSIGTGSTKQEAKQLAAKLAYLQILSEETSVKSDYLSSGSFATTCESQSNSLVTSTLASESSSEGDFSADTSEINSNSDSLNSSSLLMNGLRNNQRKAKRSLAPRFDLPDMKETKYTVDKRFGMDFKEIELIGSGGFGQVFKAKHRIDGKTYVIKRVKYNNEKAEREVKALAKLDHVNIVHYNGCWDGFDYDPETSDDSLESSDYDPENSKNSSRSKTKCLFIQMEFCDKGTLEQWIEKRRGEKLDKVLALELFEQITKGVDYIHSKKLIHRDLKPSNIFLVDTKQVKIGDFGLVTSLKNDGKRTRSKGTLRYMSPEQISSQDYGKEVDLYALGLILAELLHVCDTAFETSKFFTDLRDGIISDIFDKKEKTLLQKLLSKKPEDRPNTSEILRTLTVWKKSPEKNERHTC

[8] = molecular target: Mitogen-activated protein kinase kinase kinase kinase 4 (Homo sapiens, UniProt O95819); test: Selectivity interaction (KinomeScan (DiscoverX)) EUB0000092b MAP4K4; details: at 10 µM
Chain of Mitogen-activated protein kinase kinase kinase kinase 4 (O95819 2-1239 limits assumed): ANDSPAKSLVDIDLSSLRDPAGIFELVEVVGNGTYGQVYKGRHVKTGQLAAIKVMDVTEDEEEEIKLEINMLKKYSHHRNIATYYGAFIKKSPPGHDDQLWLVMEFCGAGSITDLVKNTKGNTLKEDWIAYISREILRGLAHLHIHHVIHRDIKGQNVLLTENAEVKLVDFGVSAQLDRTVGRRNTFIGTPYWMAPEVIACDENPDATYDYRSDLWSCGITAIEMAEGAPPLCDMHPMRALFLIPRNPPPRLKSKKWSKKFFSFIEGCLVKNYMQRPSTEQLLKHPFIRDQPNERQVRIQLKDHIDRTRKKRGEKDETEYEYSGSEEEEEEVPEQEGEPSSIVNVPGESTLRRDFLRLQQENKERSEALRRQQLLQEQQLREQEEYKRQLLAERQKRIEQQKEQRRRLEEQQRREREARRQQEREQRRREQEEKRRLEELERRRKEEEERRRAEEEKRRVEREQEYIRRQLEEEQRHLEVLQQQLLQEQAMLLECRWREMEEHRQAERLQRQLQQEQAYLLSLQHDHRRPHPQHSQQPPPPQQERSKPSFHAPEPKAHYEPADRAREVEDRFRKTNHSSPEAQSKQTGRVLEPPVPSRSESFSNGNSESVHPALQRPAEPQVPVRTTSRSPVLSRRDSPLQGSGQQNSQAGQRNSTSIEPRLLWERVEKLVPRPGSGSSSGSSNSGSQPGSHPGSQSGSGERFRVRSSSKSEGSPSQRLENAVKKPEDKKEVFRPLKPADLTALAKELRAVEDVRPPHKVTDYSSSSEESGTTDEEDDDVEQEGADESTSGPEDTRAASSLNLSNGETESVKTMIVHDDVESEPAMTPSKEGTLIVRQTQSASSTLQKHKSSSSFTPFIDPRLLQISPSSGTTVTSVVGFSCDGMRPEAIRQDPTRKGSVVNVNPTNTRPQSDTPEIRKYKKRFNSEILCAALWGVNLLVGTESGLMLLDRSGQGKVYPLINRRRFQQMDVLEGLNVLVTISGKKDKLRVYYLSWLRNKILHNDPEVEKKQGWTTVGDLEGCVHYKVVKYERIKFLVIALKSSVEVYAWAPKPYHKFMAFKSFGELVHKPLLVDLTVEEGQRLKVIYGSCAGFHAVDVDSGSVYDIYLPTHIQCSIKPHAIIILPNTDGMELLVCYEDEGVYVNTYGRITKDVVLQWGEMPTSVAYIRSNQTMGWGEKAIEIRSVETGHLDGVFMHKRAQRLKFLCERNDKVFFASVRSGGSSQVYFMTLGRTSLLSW

[9] = molecular target: T2, Ephrin type-B receptor 2 (Homo sapiens) (UniProt P29323); test: Selectivity interaction (Ambit KINOMEscan and KiNATiv profiling in Jurkat cells) EUB0000090b EPHB2; assay type: cell-based; details: at 1 µM
T2 sequence (whole entry): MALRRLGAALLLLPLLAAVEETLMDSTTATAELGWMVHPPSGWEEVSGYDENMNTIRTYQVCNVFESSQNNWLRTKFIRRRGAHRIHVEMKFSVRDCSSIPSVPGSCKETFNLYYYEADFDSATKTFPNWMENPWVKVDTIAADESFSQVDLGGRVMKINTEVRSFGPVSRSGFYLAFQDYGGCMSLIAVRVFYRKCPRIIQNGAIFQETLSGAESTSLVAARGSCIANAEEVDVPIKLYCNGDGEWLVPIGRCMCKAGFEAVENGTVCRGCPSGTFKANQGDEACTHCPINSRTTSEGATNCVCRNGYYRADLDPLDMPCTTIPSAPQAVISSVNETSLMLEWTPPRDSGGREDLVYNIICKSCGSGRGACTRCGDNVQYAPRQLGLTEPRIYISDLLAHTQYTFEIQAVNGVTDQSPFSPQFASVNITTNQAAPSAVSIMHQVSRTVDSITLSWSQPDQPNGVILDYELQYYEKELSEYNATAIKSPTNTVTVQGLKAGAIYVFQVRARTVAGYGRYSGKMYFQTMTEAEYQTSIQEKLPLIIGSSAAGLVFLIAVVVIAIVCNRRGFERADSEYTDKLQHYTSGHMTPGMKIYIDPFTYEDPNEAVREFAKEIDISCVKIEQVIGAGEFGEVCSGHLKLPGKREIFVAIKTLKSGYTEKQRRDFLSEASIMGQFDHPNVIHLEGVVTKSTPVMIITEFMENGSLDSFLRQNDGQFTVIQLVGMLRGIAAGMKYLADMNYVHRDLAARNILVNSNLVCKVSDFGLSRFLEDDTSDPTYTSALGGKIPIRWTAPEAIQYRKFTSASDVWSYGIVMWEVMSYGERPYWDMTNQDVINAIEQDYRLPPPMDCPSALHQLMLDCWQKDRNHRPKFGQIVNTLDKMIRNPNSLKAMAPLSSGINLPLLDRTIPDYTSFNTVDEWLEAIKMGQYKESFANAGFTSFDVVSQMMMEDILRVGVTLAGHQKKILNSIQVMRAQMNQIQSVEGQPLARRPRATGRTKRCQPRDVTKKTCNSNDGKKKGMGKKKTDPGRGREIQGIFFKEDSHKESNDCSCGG

COCC(=O)NC/C=C/c1ccc2ncnc(Nc3ccc(Oc4ccc(C)nc4)c(C)c3)c2c1 [CP-724714]
% of control [1]: 100%

Cn1cc(-n2cnc3c(NCc4nc5cc(Cl)c(Cl)cc5[nH]4)nc(N4CCOCC4)nc32)cn1
% of control [2]: 11.9%

O=C(NOC[C@H](O)CO)c1ccc(F)c(F)c1Nc1ccc(I)cc1F
% of control [3]: 92%

Cc1cc([C@@H](C)Nc2ccccc2C(=O)O)c2nc(N3CCOCC3)cc(=O)n2c1 [AZD-6482]
% of control [4]: 100%

CC(C)(O)[C@H](F)CN1Cc2cc(NC(=O)c3cnn4cccnc34)c(N3CCOCC3)cc2C1=O
dTM [5]: 3.4 K

CC[C@@H]1[C@H](F)C(=O)N[C@@H]1COc1nccc2cc(C(N)=O)c(OC)cc12 [ZIMLOVISERTIB]
% of inhibition ([6]; at 0.01 µM): 1%
% of inhibition ([6]; at 0.04 µM): -8.9%
% of inhibition ([6]; at 0.2 µM): -9.3%
% of inhibition ([6]; at 1 µM): 2.6%
% of inhibition ([6]; at 5 µM): 6.3%
% of inhibition [7]: -3.7%

CCC(=O)N1CCN(c2ccc(-n3c(=O)ccc4cnc5ccc(-c6cnc7ccccc7c6)cc5c43)cc2C(F)(F)F)CC1
% of control [8]: 5.2%

CN(C)C/C=C/C(=O)Nc1ccc(C(=O)N2CCCC(Nc3ncc(Cl)c(-c4c[nH]c5ccccc45)n3)C2)cc1 (stereo not drawn)
% of control [9]: 100%
